Reference: US20100062441A1, “C-MET MUTATIONS AND USES THEREOF” (priority 2007, published 2010)

Experiments:
[1] = system: c-Met dependent signaling in MU melanoma cells; assay: Phosphorylation of c-Met and signaling molecules via HGF, immunoblotting; format: cell-based, human
Experimental: (§1) MU and MC cells that expressed c-Met were deprived of growth factors by incubation in serum free medium containing 0.5% BSA for 24 hours with or without SU11274 (5 μM). After treatment with or without SU11274 in serum free medium, cells were stimulated with or without HGF (EMD Biosciences, San Diego, Calif.) at 40 ng/ml for 7.5 minutes at 37° C. After harvesting, the cells were subjected to the standard procedures of immunoblotting. Antibodies specifically against phosphorylated c-Met, and other proteins are as described above.
(§2) The ability of SU11274 to inhibit activation of c-Met was examined by immunoblotting. Treatment with HGF increased the autophosphorylation of c-MET at the activation loop site phospho-epitope [pY1230/1234/1235]. […] HGF binding to c-Met activated its' tyrosine kinase, AKT (S-473) and S-6 kinase (T-421/S424).

[2] = system: c-Met dependent signaling in MM-MC melanoma cells; assay: as above; format: cell-based, human; settings: MM-MC (c-Met mutation)
Experimental: as §1, §2

[3] = system: reactive oxygen species (ROS) in MU melanoma cells; assay: Reactive oxygen species measurement by DHE immunofluorescence; format: cell-based, human; settings: 5 μM SU11274 for 12 hrs; HGF 40 ng/ml
Experimental: 5×10^4 MU melanoma cells were plated in 35 mm petri dishes. After 24 hrs MU Melanoma cells were kept in serum free media containing 0.5% BSA with and without 5 μM SU11274 for 12 hrs. Cells were treated with 40 ng/ml HGF for 7.5 min, then treated with DHE 10 μM (molecular probes Inc, Eugene, Oreg.) for 30 min, after which they were visualized under a fluorescent Olympus microscope IX81, 20× objective, ND3 and Rhodamine filter sets. Fluorescence was then quantified using Image J and graphed.
The endogenous levels of reactive oxygen species (ROS) was also analyzed in MU melanoma cells with and without HGF treatment using DHE by fluorescence microscopy. DHE is a redox sensitive probe that has widely been used to detect intracellular superoxide anion. The relative levels of ROS were increased in response to HGF by 47%, and SU11274 decreased the ROS response to HGF to 3%.

[4] = system: MM-AN melanoma cells (minimal levels of c-MET); assay: Cell growth analysis (cell counting); format: cell-based, human
Experimental: (§3) For measuring the effect of SU11274 on growth of melanoma cells, MM-AN, MU, PM-WK, MM-RU, MM-MC and RPM-EP cells were plated at 6×10^4 cells in 60 mm dishes in MEM with 10% serum. After 24 hrs different concentrations of SU11274 were added and after 96 hrs cells were trypsinized and counted in a cell counter (Beckman Coulter). Each data point was repeated in triplicate.

[5] = system: c-Met phosphorylation in SCCHN cell lines; assay: c-Met phosphorylation and downstream signaling after HGF stimulation; format: cell-based, human
MU melanoma cells = assay: Proliferation / growth of melanoma cells; format: cell-based; settings: Homo sapiens
Experimental: as §3
siRNA against c-Met was obtained from Dharmacon (Lafayette, Colo.). Briefly four pooled SiRNA duplexes were transiently transfected into MU melanoma cells by the Dharmacon protocol utilizing Oligofectamine obtained from Invitrogen (Carlsbad, Calif.). Mock transfection was done in parallel using SignalSilence control SiRNA (Cell Signaling Technology) as negative control. For studies on the effect of Si RNA on differentiation proteins MU melanoma cells were transfected with Si RNA as described above and cell lysates were prepared after 12 hrs and immunoblotting performed as described above.
The effect of si RNA against c-Met was also studied on the proliferation and differentiation of MU melanoma cells. […] SU11274 at 5 μM and 10 μM inhibited the growth of melanoma cells by 72% and 88% respectively. […] The increase in the level of various differentiation proteins was determined by densiometric anaylsis after treatment with c-Met si RNA.

- IC50 of MM-AN relative to cell lines with abundant c-Met [4]: 2 fold
- IC50 ([4]; Homo sapiens, MM-AN, 96 hrs): 5 µM
SMILES: Cc1[nH]c(/C=C2\C(=O)Nc3ccc(S(=O)(=O)N(C)c4cccc(Cl)c4)cc32)c(C)c1C(=O)N1CCN(C)CC1 [SU11274, (3Z)-N-(3-chlorophenyl)-3-({3,5-dimethyl-4-[(4-methylpiperazin-1-yl)carbonyl]-1H-pyrrol-2-yl}methylene)-N-methyl-2-oxo-2,3-dihydro-1H-indole-5-sulfonamide]
- BCLXL level [1]: downregulated
- HGF induced phosphorylation of c-Met, AKT and S6 kinase ([1]; 5 μM): completely inhibited
- autophosphorylation of c-MET at activation loop site [pY1230/1234/1235] ([1]; HGF stimulated): completely abolished
- phosphorylation of c-Met and AKT ([1]; MU (no c-Met mutation)): inhibited
- phosphorylation of c-Met and AKT [2]: inhibited
- ROS response to HGF [3]: 3%
- c-Met phosphorylation ([5]; all cell lines tested, HGF stimulation): Marked inhibition
- downstream phosphorylation of SHP2, AKT, ERK ([5]; degree varied by cell line): affected downstream phosphorylation of SHP2, AKT, and to a lesser degree ERK
- inhibition at 5 µM (MU melanoma cells; 5 μM): 72%
- inhibition at 10 µM (MU melanoma cells; 10 μM): 88%
